Data set [1] concerns serum calcium. Description: Phase 3 trial (Example 1): serum calcium. Format: in vivo, human. The protocol:
Serum phosphorus and calcium were performed at Screening (Visit 0); weekly during the Washout Period after Visit 1 (Week −2); at Visit 4 (Randomization Visit); at Visits 5 (Week 1), 6 (Week 2), 7 (Week 4), 8 (Week 6), 9 (Week 8), 10 (Week 10), 11 (Week 12), 12 (Week 16), 13 (Week 20), 14 (Week 24), 15 (Week 28), 16 (Week 32), 17 (Week 36), 18 (Week 40), 19 (Week 44), 20 (Week 48), and 21 (Week 52) of the 52-week Safety Assessment Period; and at Visits 22 (Week 53), 23 (Week 54), 24 (Week 55) and 25 (Week 56) of the Efficacy Assessment Period.
These variables will be analyzed using LOCF methodology. ANCOVA will be employed. The model will include treatment (fixed effect), and Visit-4 baseline (covariate). An analysis using MMRM method will be conducted as a sensitivity analysis. The least square mean estimates of the treatment effects as well as the 2-sided 95% confidence intervals (CI) of the treatment effects will be derived.
• 1. Change in serum calcium concentration at Weeks 12, 24, 36, 48, and 52 as compared to baseline (Visit 4). This variable will be analyzed using LOCF methodology. ANCOVA will be employed. The model will include treatment (fixed effect), and baseline (covariate). • 2. Change in ferritin, and TSAT at Weeks 12, 24, 36 and 48 as compared to baseline (Visit 4). This variable will be analyzed using LOCF methodology. ANCOVA will be employed. The model will include treatment (fixed effect), and baseline (covariate). • 3. Change in serum iron and TIBC at Weeks 12, 24, 36, 48, and 52 as compared to baseline (Visit 4). This variable will be analyzed using LOCF methodology. ANCOVA will be employed. The model will include treatment (fixed effect), and baseline (covariate). • 4. Change in Ca x P product at Weeks 12, 24, 36, 48, and 52 as compared to baseline (Visit 4). This variable will be analyzed using LOCF methodology. ANCOVA will be employed. The model will include treatment (fixed effect), and baseline (covariate). • 5. Change in iPTH at Weeks 12, 36, 52, and 56 as compared to baseline (Visit 4). This variable will be analyzed using LOCF methodology. ANCOVA will be employed. The model will include treatment (fixed effect), and baseline (covariate). • 6. Change in serum […], vitamin A, vitamin B-12, vitamin E, vitamin K and folic acid at Weeks 12, 36, and 52 as compared to baseline (Visit 4). This variable will be analyzed using LOCF methodology. ANCOVA will be employed. The model will include treatment (fixed effect), and baseline (covariate). • 7. Change in serum bicarbonate concentration at Weeks 12, 36, and 52 as compared to baseline (Visit 4). This variable will be analyzed using LOCF methodology. ANCOVA will be employed. The model will include treatment (fixed effect), and baseline (covariate). • 8. Change in IV iron intake at Weeks 12, 24, 36, 48, and 52 as compared to baseline (Visit 4). This variable will be analyzed using LOCF methodology. ANCOVA will be employed. The model will include treatment (fixed effect), and baseline (covariate). • 9. Change in the use of EPO (ESA) administered at Weeks 12, 24, 36, 48, and 52 as compared to baseline (Visit 4). This variable will be analyzed using LOCF methodology. ANCOVA will be employed. The model will include treatment (fixed effect), and baseline (covariate). • 10. Change in the use of Vitamin D supplementation (and its analogs) and Sensipar (cinacalcet) at Weeks 12, 24, 36, 48, and 52 as compared to baseline (Visit 4). This variable will be analyzed using LOCF methodology. ANCOVA will be employed. The model will include treatment (fixed effect), and baseline (covariate). • 11. Change in LDL, HDL, and triglycerides at Weeks 12, 36, and 52 as compared to baseline (Visit 4). This variable will be analyzed using LOCF methodology. ANCOVA will be employed. The model will include treatment (fixed effect), and baseline (covariate).

Data set [2] is described as follows: Dissolution testing, USP <711> vessels, Apparatus II. Format: physicochemical. The conditions noted are these: relative to standard = 100.

Consider “iron (+3), x (1, 2, 3-propanetricarboxylic acid, 2-hydroxy-), y (H2O) [KRX-0502]”, for which the “Calcium, Mean” value worked out at 8.843 mg/dL in data set [1] (Baseline, Table 12) and 9.089 mg/dL in data set [1] (Week 12, Table 12). In addition, the “Calcium, Median” value in data set [1] (Baseline, Table 12) amounted to 8.900 mg/dL; in data set [1] (Week 12, Table 12), 9.100 mg/dL. The “Calcium, Week 12 Change from Baseline, Mean” value in data set [1] (Table 12) came out at 0.245 mg/dL. Moreover, in data set [1] (Table 12), the “Calcium, Week 12 Change from Baseline, Median” value came to 0.200 mg/dL. Also, in data set [1] (Week 12, ANCOVA, Table 12), the “Calcium, LS Mean” value turned out to be 9.11 mg/dL. For the same substance, the “Calcium, Treatment Differences, LS Mean (KRX-0502) − LS Mean (Control)” value in data set [1] (Week 12, control = sevelamer carbonate as a single agent) was -0.04 mg/dL. Further, the “Dissolution testing, percentage dissolved” value is given as not below 91% in data set [2] (5 minutes), not below 96% in data set [2] (15 minutes), not below 96% in data set [2] (30 minutes) and not below 95% in data set [2] (60 minutes).
